Measurements reported in patent US4038390A, “Salts of p-dihydroxybenzene disulfonic acids for combatting hemorrhages and fragility of the capillaries” (Laboratorios del Dr. Esteve, S.A., priority 1972, dated 1977).

Tests used:
average bleeding time = test: Hemostatic action: average bleeding time, method of ROSKAM modified by LAPORTE, rabbit's ear; type: in vivo; details: for DE50: effect and route not given; for Percentage decrease of average bleeding time: one hour after administering
Method: (§1) The activity for the hemostatic action is determined in vivo, by ROSKAM's method, as modified by LAPORTE, on the rabbit's ear, and the protective action on the capillaries by the method of BEACH and STEINETZ. The therapeutical index (ratio between LD50 and TE50) is very favorable, in view of the high activity and low toxicity.

[1] = DL50 of some compounds according to the invention (species not stated); set-up: DL50: unit not given beside the values; details: in vivo
Text: The following table gives the values for DL50 and DE50, as well as proposed doses of some compounds according to the present invention.

[2] = Acute toxicity in the mouse (LD50, method of Reed and Muench); details: in vivo
Method: (§2) 1. Acute toxicity in the mouse and the rat
(§3) The LD50 was determined according to the method of Reed and Muench.

[3] = Acute toxicity in the rat (LD50, method of Reed and Muench); details: in vivo
Method: as §2
100 to 150 g Sprague-Dawley rats
as §3

capillary permeability = test: Protective action on capillaries: capillary permeability, modified method of BEACH-STEINITZ; type: in vivo; details: mouse
Method: as §1
The action of bis diethylamine p-dihydroxy benzene disulfonate on the capillary permeability for the mouse was determined by the modified method of BEACH-STEINITZ (J. Pharmacol. Exp. Ther. 131 (1), 400, 1961). The product, administered i.p., causes a decrease of the capillary permeability which appears after 8 micromoles/kg, and higher doses, and the maximum effect is attained at a dose of 200 micromoles/kg.

[4] = test system: plasma cholesterol, triglyceride, and total lipids levels; test: Hypolipedemic action in rats treated with Triton WR-1339; type: in vivo, Sprague-Dawley rats

O=S(=O)(O)c1cc(O)c(S(=O)(=O)O)cc1O [bis (ammonium) p-dihydroxy-benzene disulfonate] [bis (ammonium)-p-dihydroxy benzene disulfonate]
DE50 (average bleeding time): 2,45 μmoles/kg

O=S(=O)(O)c1cc(O)c(S(=O)(=O)O)cc1O [bis (ammonium)-p-dihydroxy benzene disulfonate]
LD50 ([1]; route not given): 1210 mg/kg

O=S(=O)(O)c1cc(O)c(S(=O)(=O)O)cc1O [bis (piperazine) p-dihydroxy-benzene disulfonate] [bis (piperazine) p-dihydroxy benzene disulfonate]
DL50 ([1]; po): > 2000 | DE50 (average bleeding time): 1,25 μmoles/kg

O=S(=O)(O)c1cc(O)c(S(=O)(=O)O)cc1O [bis-diethylamine p-dihydroxy benzene disulfonate] [listing 1 of 2 here]
LD50 ([2]; iv, I.V., mouse female): 1020 mg/kg | LD50 ([2]; iv, I.V., mouse male): 1020 mg/kg | LD50 ([2]; po, mouse female): 5880 mg/kg | LD50 ([2]; po, mouse male): 6290 mg/kg | LD50 ([3]; ip, I.P., rat female): 2440 mg/kg | LD50 ([3]; ip, I.P., rat male): 2650 mg/kg | LD50 ([3]; po, rat female): 4680 mg/kg | LD50 ([3]; po, rat male): 5840 mg/kg | ED (maximum effect) (capillary permeability; ip, read-out: dose at which maximum effect on capillary permeability is attained): 200 µmol/kg | minimal effective dose (capillary permeability; ip, read-out: dose from which decrease of the capillary permeability appears): ≥ 8 µmol/kg

O=S(=O)(O)c1cc(O)c(S(=O)(=O)O)cc1O [bis-diethylamine p-dihydroxy benzene disulfonate] [listing 2 of 2 here]
Percentage decrease of average bleeding time (average bleeding time; 0.625 micromoles/kg): 8.5% | Percentage decrease of average bleeding time (average bleeding time; 1.25 micromoles/kg): 19.5% | Percentage decrease of average bleeding time (average bleeding time; 2.5 micromoles/kg): 32.0% | duration of effect on bleeding time (in words) (average bleeding time; 5 micromoles/kg): long lasting | % decrease of average bleeding time (average bleeding time; 5 micromoles/kg, 1 hour after i.v. administration): 43.0% | % decrease of average bleeding time (average bleeding time; 5 micromoles/kg, 2 hours after i.v. administration): 46.8% | % decrease of average bleeding time (average bleeding time; 5 micromoles/kg, 4 hours after i.v. administration): 42.0% | % decrease of average bleeding time (average bleeding time; 5 micromoles/kg, 8 hours after i.v. administration): 33.5% | % decrease of average bleeding time (average bleeding time; 5 micromoles/kg, 16 hours after i.v. administration): 32.0% | % decrease of average bleeding time (average bleeding time; 5 micromoles/kg, 24 hours after i.v. administration): 21.0% | Percentage decrease of average bleeding time (average bleeding time; 5.0 micromoles/kg): 43.0% | Percentage decrease of average bleeding time (average bleeding time; 7.05 micromoles/kg): 51.0% | Percentage decrease of average bleeding time (average bleeding time; 10.0 micromoles/kg): 50.0% | DE50 (average bleeding time): 2,25 μmoles/kg | effect on bleeding time (in words) (average bleeding time; rabbit): produces a decrease of the bleeding time | dose dependence of decrease of capillary permeability (in words) (capillary permeability; i.p., intermediate doses (8 to 200 micromoles/kg)): effects proportional to the logarithm of the dose | FREE CHOLESTEROL (plasma) ([4]; Triton + compound, Triton alone 60.5 ± 2.5): 54.4 ± 3.9 mg % | TOTAL CHOLESTEROL (plasma) ([4]; Triton + compound, Triton alone 238.4 ± 6.5): 223.0 ± 15.1 mg % | TRIGLYCERIDES (plasma) ([4]; Triton + compound, Triton alone 773.5 ± 59.1): 589.5 ± 57.9 mg % | TOTAL LIPIDS (plasma) ([4]; Triton + compound, Triton alone 2466.9 ± 141.2): 2001.9 ± 193.7 mg % | effect on increase of plasma cholesterol, triglyceride, and total lipids levels (in words) ([4]; Triton WR-1339 treated rats): significantly inhibits the increase

O=S(=O)(O)c1cc(O)c(S(=O)(=O)O)cc1O [calcium p-dihydroxybenzene-disulfonate, calcium p-dihydroxy benzene disulfonate]
DL50 ([1]; po): > 6880 | DE50 (average bleeding time): 0,98 μmoles/kg

O=S(=O)(O)c1cc(O)c(S(=O)(=O)O)cc1O [lithium p-dihydroxybenzene-disulfonate, lithium p-dihydroxy benzene disulfonate]
DL50 ([1]; iv): 2186 | DE50 (average bleeding time): 0,90 μmoles/kg
